Source: patent publication US8637038B2, “Methods for inhibiting allograft rejection” (Rigel Pharmaceuticals, Inc., priority 2011, dated 2014)
Where two headings read alike, the source gives them in different places.

How the values were obtained:
[1] = test system: JAK1/Tyk2; assay: IFN-γ whole blood lymphocytes phospho-STAT1; type: cell-based; conditions: Lymphocyte, read-out: IFN-γ whole blood lymphocytes phospho-STAT1 EC50
Procedure: (§1) The activity of Compound III and Compound I was assessed in a panel of cell-based assays. Compound III and Compound I are selective inhibitors of JAK1/3-dependent signaling. Data for a non-selective JAK inhibitor (Compound IV) is shown for reference. Mixed lymphocyte reactions (MLRs) were performed by incubating freshly prepared naive human peripheral blood lymphocytes from one donor with CD80+/CD86+ mature Dendritic Cells derived from a different donor for 5 days. The percentage of CD3+/CD71+ (anti-CD3-APC, Clone HIT3a, anti-CD 71-FITC, Clone M-A712; BD Biosciences, San Jose, Calif.) proliferating cells was assessed by fluorescence-activated cell sorting (FACS; BD Bioscience). Interleukin-2 (IL-2)-dependent human primary T cell proliferation was assessed using CellTiter-Glo® Luminescent Cell Viability Assay (Promega, Madison, Wis.). STAT phosphorylation induced by different cytokines in human primary T cells was measured by intracellular FACS analysis (anti-pY694-STAT5 AlexaFluor488, anti-pY701-STAT1 AlexaFluor488, and anti-pY693-STAT4 AlexaFluor488; BD Biosciences). […] Interferon-γ (IFN-γ) signaling was assessed in the U937 monocytic cell line by measuring ICAM-1 surface expression by FACS (ICAM-1-APC, BD Bioscience).

[2] = test system: Syk; assay: IgE CHMC tryptase release; type: cell-based; conditions: Homo sapiens, read-out: IgE CHMC tryptase EC50
Procedure: The erythropoietin (EPO)-dependent survival of cultured human erythroid progenitor cells (CHEPs) was determined using CellTiter-Glo® Luminescent Cell Viability Assay (Promega). Human primary T cell activation was assessed by measuring IL-2 production by ELISA (R&D Systems, Minneapolis, Minn., USA) following plate-bound anti-CD3 and anti-CD28 stimulation (Anti-Human CD3; BD Biosciences; Anti-Human CD28; Immunotech; Prague, Czech Republic). The enzymatic activity of tryptase released by human cultured mast cells (CHMCs) upon stimulation with IgE was quantified by cleavage of the synthetic fluorescent peptide substrate Z-Ala-Lys-Arg-7-amino-4-methylcoumarin (MP Biomedicals, Solon, Ohio, USA) in tryptase buffer. B-cell receptor-dependent Erk phosphorylation was measured in Ramos cells by intracellular FACS (anti-pT202/pY204-ERK1/2-AlexaFluor488; BD Biosciences). Cell proliferation assays were performed using A549 epithelial cells and H1299 lung carcinoma cells using nuclear staining to measure cell numbers (4′6-diamidino-2-phenylindole, dihydrochloride (DAPI; Invitrogen, Darmstadt, Germany)).

[3] = test system: Lew recipients of heterotopic BN heart transplants; assay: Five-day heart allograft study: CD3+/CD68+ immunohistochemistry; type: in vivo, rat; conditions: for CD68+ cell infiltration compared to Tac HD group / CD68+ cells compared to no medication group: HD groups, five days, p<0.001; for CD68+ and CD3+ cell infiltration compared to Tac LD group: LD groups (Compound I 15 mg/kg BID, Compound III 5 mg/kg BID), p<0.05
Source text: Male Brown Norway (BN) and Lewis (Lew) rats weighing 350 g were purchased from Harlan (Indianapolis, Ind.) and were housed under conventional conditions. All animals were fed standard rat chow and water ad libitum and received humane care in compliance with the Principles of Laboratory Animal Care formulated by the National Society for Medical Research and the Guide for the care and Use of Laboratory Animals published by the National Institutes of Health (National Institutes of Health publication No. 85-23, revised 1985). Allogeneic (BN-to-Lew) and syngeneic (Lew-to-Lew) heterotopic heart transplantations were performed as described previously (Ono et al., J. Thorac. Cardiovasc. Surg. 57:225-229, 1969). In brief, rats were anaesthetized using 2% isoflurane. The donor received an intravenous bolus of 500 I.U. heparin. Cardiac arrest was achieved using 20 ml Bretschneider solution (Custodiol, Dr. F. Koehler Chemie, Bensheim, Germany). […] Heart-beating score was assessed directly after transplantation for each animal from score 0 (no palpable contraction) to 4 (strong and regular contraction). Only animals with beating scores of 4 were included into the study.
Compound I and Compound III were provided by Rigel (South San Francisco, Calif.) and Tacrolimus was provided by Astellas (Munich, Germany). All drugs were administrated orally each in two different concentrations: Compound I LD (15 mg/kg BID; n=6) and HD (60 mg/kg BID; n=6); Compound III LD (5 mg/kg BID; n=6) and HD (20 mg/kg BID; n=6); Tac LD (1 mg/kg QD; n=6) and HD (4 mg/kg QD; n=6). Administration of all drugs was performed every day at the same time points. Tacrolimus was applied only once a day (QD) every 24 hours. During administration of Compound I (BID) and Compound III (BID) a 12 hour pause was kept in between each drug application.
Lew recipients of heterotopic BN heart transplants were randomly assigned to their group. Animals were either left untreated (groups 1 and 2; see Table 1,5-day study) or received their group specific medication (groups 3-8; see Table 1,5-day study) by oral application. An untreated syngeneic transplant group Lew-Lew was generated as control.
Paraffin-embedded tissue sections were deparaffinized and rehydrated. Sections were incubated with protein blocking solution (ZytoChem Plus (AP) Polymer Kit; Zytomed Systems GmbH, Berlin, Germany) to prevent background staining. After antigen retrieval, specific antibodies against rat CD68 and CD3 (Serotec, Raleigh, N.C.) were applied to identify macrophages and lymphocytes, respectively, and visualized via alkaline phosphatase and new fuchsin substrate reaction (Zytomed System GmbH; Dako, Carpinteria, Calif.). Sections were counterstained by H+E (Waldeck). After overnight incubation with primary antibody solution and subsequent washing, enhancement reagent (ZytoChem) was applied, followed by enzymatic reaction of alkaline phosphatase induced by New Fuchsin Substrate System (Dako).
Inflammatory cell densities within the myocardium were assessed with the Leica QWin software (Leica Microsystems GmbH, Wetzlar, Germany) and expressed as cells/high-power field (HPF). Histological analyses of all stainings were done by a pathologist.

[4] = test system: JAK1/2/Tyk2; assay: IL-6 whole blood lymphocytes phospho-STAT3; type: cell-based; conditions: Lymphocyte, read-out: IL-6 whole blood lymphocytes phospho-STAT3 EC50
Procedure: as §1

SMILES	EC50 ([1]; whole blood, JAK1/Tyk2) [µM]	EC50 ([2]; upstream kinase Syk) [µM]	CD68+ cell infiltration compared to Tac HD group [3]	CD68+ cells compared to no medication group [3]	CD68+ and CD3+ cell infiltration compared to Tac LD group [3]	EC50 ([4]; whole blood, JAK1/2/Tyk2) [µM]	EC50 [1] [µM]	EC50 [2] [µM]	EC50 [4] [µM]
COc1cc(Nc2ncc(C)c(Nc3ccc4oc(=O)[nH]c4c3)n2)cc(C)c1F [Compound I, 5-(2-(4-fluoro-3-methoxy-5-methylphenylamino)-5-methylpyrimidin-4-ylamino)benzo[d]oxazol-2(3H)-one]	0.153 ± 0.033	0.457 ± 0.263	significantly less	significantly reduced	less CD68+ and CD3+ cell infiltration	3.83 ± 1.52	–	–	–
COc1cc(Nc2ncc(C)c(Nc3ccc4oc(=O)[nH]c4c3)n2)cc(C)c1C [Compound III, 5-(2-(3-methoxy-4,5-dimethylphenylamino)-5-methylpyrimidin-4-ylamino)benzol[d]oxazol-2-(3H)-one]	–	–	significantly less	significantly reduced	less CD68+ and CD3+ cell infiltration	–	0.511 ± 0.279	0.38 ± 0.15	6.69 ± 1.61
